Test results as given in patent publication US20130331764A9, “ANTICANCER AGENT DELIVERY SYSTEM USING pH-SENSITIVE METAL NANOPARTICLES” (priority 2010, published 2013).

System: Breast cancer cells
Assay: Drug test: intranuclear delivery of doxorubicin by nuclear yellow-reddish fluorescence (fluorescence microscopy)
Assay type: cell-based
Method: In this Example, the anticancer drug doxorubicin was employed. Doxorubicin works to induce cell death by intercalating DNA. It emits yellow-reddish fluorescence at near 600 nm. When the conjugates penetrate into cancer cells, doxorubicin is dissociated from the gold nanoparticles by hydrolysis under an acidic condition and translocates into the nucleus which thus emits yellow-reddish fluorescence.
Breast cancer cells in test groups were incubated with the pH-sensitive gold nanoparticle-doxorubicin conjugates to induce the internalization of the conjugate (middle panel, FIG. 6).
For comparison, cells were incubated with doxorubicin-free pH-sensitive gold nanoparticles (left panel, FIG. 6) and with doxorubicin alone (right panel, FIG. 6) under the same condition.
The intranuclear delivery of doxorubicin can be qualitatively analyzed in terms of nuclear yellow-reddish fluorescence as measured by fluorescence microscopy.

## COc1cccc2c1C(=O)c1c(O)c3c(c(O)c1C2=O)C[C@@](O)(C(=O)CO)C[C@@H]3O[C@H]1C[C@H](N)[C@H](O)[C@H](C)O1 [doxorubicin]
3 hours of incubation
  nuclear fluorescence of doxorubicin: the fluorescence was intensified
One hour of incubation
  nuclear fluorescence of doxorubicin: started to exhibit fluorescence
